Laboratory results published in patent US8283361B2 (AstraZeneca AB, priority 2008, dated 2012).

Biological target: S. aureus GyrB ATPase (Staphylococcus aureus, UniProt P0A0K8)
Test: biochemical
Settings: compound at 1 μM; one value per test if tested more than once; 1 µM
Protocol: S. aureus GyrB ATPase Inhibition Activity: Compounds may be tested for inhibition of S. aureus GyrB ATPase activity using an ammonium molybdate/malachite green-based phosphate detection assay (Lanzetta, P. A., L. J. Alvarez, P. S. Reinach, and O. A. Candia, 1979, 100: 95-97). Assays can be performed in multiwell plates in 30 μl reactions containing: 50 mM Hepes buffer pH 7.5, 75 mM ammonium acetate, 8.0 mM magnesium chloride, 0.5 mM ethylenediaminetetraacetic acid, 5% glycerol, 1.0 mM 1,4-Dithio-DL-threitol, 200 nM bovine serum albumin, 1.0 μg/m1 sheared salmon sperm DNA, 250 pM E. coli GyrA, 250 pM S. aureus GyrB, 250 μM ATP, and compound in dimethylsulfoxide. Reactions can be quenched with 30 μl of ammonium molybdate/malachite green detection reagent containing 1.2 mM malachite green hydrochloride, 8.5 mM ammonium molybdate tetrahydrate, and 1 M hydrochloric acid. […] An IC50 measurement of compound potency for each compound can be determined from reactions performed in the presence of 10 different compound concentrations.

Chain of S. aureus GyrB ATPase (P0A0K8 whole entry): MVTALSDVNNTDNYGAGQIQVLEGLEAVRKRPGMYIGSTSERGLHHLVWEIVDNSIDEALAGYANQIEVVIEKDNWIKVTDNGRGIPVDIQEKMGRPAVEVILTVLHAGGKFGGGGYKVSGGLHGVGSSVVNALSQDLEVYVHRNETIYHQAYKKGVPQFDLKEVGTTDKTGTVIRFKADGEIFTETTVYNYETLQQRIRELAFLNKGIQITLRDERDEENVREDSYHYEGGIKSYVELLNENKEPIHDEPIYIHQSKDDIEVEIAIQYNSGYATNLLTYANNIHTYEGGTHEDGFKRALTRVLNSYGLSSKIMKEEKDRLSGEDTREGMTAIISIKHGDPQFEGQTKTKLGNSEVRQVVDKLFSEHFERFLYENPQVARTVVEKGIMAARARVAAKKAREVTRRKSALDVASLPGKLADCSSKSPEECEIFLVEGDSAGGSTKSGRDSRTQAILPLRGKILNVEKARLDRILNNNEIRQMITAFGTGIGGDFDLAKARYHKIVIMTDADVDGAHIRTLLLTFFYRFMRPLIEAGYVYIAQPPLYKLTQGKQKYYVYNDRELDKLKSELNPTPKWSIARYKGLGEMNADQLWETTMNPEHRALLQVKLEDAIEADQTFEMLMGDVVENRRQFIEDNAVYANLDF
Chain of S. aureus GyrB ATPase (P0AES4 whole entry, further chain): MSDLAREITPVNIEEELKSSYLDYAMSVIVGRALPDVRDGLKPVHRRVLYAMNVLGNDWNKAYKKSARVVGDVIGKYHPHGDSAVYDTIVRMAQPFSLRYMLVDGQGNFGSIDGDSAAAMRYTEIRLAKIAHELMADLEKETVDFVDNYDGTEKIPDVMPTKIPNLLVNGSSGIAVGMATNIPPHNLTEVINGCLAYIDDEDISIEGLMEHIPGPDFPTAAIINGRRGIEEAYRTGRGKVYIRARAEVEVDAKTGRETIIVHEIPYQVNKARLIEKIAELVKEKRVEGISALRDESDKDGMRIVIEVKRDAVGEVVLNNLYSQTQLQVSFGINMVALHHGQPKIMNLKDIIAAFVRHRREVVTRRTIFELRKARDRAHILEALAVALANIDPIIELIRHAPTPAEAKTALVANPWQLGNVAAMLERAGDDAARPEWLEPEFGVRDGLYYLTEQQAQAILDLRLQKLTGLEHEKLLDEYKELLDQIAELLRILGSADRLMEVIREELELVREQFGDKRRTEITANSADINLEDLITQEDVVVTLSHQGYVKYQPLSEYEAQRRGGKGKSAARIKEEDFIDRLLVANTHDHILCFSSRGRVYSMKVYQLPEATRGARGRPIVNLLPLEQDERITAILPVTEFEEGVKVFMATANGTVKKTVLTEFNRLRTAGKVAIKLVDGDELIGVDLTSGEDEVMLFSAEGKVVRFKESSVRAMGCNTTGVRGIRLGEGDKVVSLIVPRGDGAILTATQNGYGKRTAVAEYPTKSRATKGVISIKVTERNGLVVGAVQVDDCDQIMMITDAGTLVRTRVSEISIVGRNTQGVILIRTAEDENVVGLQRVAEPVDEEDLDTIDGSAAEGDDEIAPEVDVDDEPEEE

For `CCNC(=O)Nc1cc(-c2nc(C(F)(F)F)cs2)c(-c2ccc3c(c2)c(=O)c(C(=O)O)cn3CCOC)cn1` [Example 1, 6-(6-(3-Ethylureido)-4-(4-(trifluoromethyl)thiazol-2-yl)pyridin-3-yl)-1-(2-methoxyethyl)-4-oxo-1,4-dihydroquinoline-3-carboxylic acid], the “% Inhibition of S. aureus GyrB ATPase” value was 104%.

Same assay, conditions: compound at 1 μM; one value per test if tested more than once; read-out: % Inhibition of S. aureus GyrB ATPase

In order of rising inhibition at 1 µM:
1. CCNC(=O)Nc1cc(-c2nc(C(F)(F)F)cs2)c(-c2ccc3c(c2)c(=O)c(C(=O)O)cn3CCCOC)cn1 [Example 12, 6-(6-(3-ethylureido)-4-(4-(trifluoromethyl)thiazol-2-yl)pyridin-3-yl)-1-(3-methoxypropyl)-4-oxo-1,4-dihydroquinoline-3-carboxylic acid]  93%
2. CCNC(=O)Nc1cc(-c2nc(C(F)(F)F)cs2)c(-c2ccc3c(c2)c(=O)c(C(=O)O)cn3C2CC2)cn1 [Example 20, 1-Cyclopropyl-6-(6-(3-ethylureido)-4-(4-(trifluoromethyl)thiazol-2-yl)pyridin-3-yl)-4-oxo-1,4-dihydroquinoline-3-carboxylic acid]  96%
3. CCNC(=O)Nc1cc(-c2nc(C(F)(F)F)cs2)c(-c2ccc3c(c2)c(=O)c(C(=O)O)cn3C(COC)COC)cn1 [Example 4, 1-(1,3-dimethoxypropan-2-yl)-6-(6-(3-ethylureido)-4-(4-(trifluoromethyl)thiazol-2-yl)pyridin-3-yl)-4-oxo-1,4-dihydroquinoline-3-carboxylic acid]  98%
4. CCNC(=O)Nc1cc(-c2nc(CC)cs2)c(-c2ccc3c(c2)c(=O)c(C(=O)O)cn3CC)cn1 [Example 13, 1-ethyl-6-(6-(3-ethylureido)-4-(4-ethylthiazol-2-yl)pyridin-3-yl)-4-oxo-1,4-dihydroquinoline-3-carboxylic acid]  98%
5. CCNC(=O)Nc1cc(-c2nc(C(F)(F)F)cs2)c(-c2ccc3c(c2)c(=O)c(C(=O)O)cn3CCN(C)C)cn1 [Example 18, 1-(2-(dimethylamino)ethyl)-6-(6-(3-ethylureido)-4-(4-(trifluoromethyl)thiazol-2-yl)pyridin-3-yl)-4-oxo-1,4-dihydroquinoline-3-carboxylic acid]  98%
6. CCNC(=O)Nc1cc(-c2nc(C(F)(F)F)cs2)c(-c2ccc3c(c2)c(=O)c(C(=O)O)cn3CCO)cn1 [Example 19, 6-(6-(3-Ethylureido)-4-(4-(trifluoromethyl)thiazol-2-yl)pyridin-3-yl)-1-(2-hydroxyethyl)-4-oxo-1,4-dihydroquinoline-3-carboxylic acid]  98%
7. CCNC(=O)Nc1cc(-c2nc(C(F)(F)F)cs2)c(-c2ccc3c(c2)c(=O)c(C(=O)O)cn3C(C)C)cn1 [Example 21, 6-(6-(3-Ethylureido)-4-(4-(trifluoromethyl)thiazol-2-yl)pyridin-3-yl)-1-isopropyl-4-oxo-1,4-dihydroquinoline-3-carboxylic acid]  98%
8. CCNC(=O)Nc1cc(-c2nc(C(F)(F)F)cs2)c(-c2ccc3c(c2)c(=O)c(C(=O)O)cn3CC)cn1 [Example 10, 1-ethyl-6-(6-(3-ethylureido)-4-(4-trifluoromethylthiazol-2-yl)pyridin-3-yl)-4-oxo-1,4-dihydroquinoline-3-carboxylic acid]  99%
9. CCNC(=O)Nc1cc(-c2nc(C(F)(F)F)cs2)c(-c2ccc3c(=O)c(C(=O)O)cn(C)c3c2)cn1 [Example 22, 7-(6-(3-Ethylureido)-4(4-(trifluoromethyl)thiazol-2-yl)pyridin-3-yl)-1-methyl-4-oxo-1,4-dihydroquinoline-3-carboxylic acid]  99%
10. CCNC(=O)Nc1cc(-c2nc(C(F)(F)F)cs2)c(-c2ccc3c(c2)c(=O)c(C(=O)O)cn3C2CN(C)C2)cn1 [Example 24, 6-(6-(3-ethylureido)-4-(4-(trifluoromethyl)thiazol-2-yl)pyridin-3-yl)-1-(1-methylazetidin-3-yl)-4-oxo-1,4-dihydroquinoline-3-carboxylic acid]  99%
11. CCNC(=O)Nc1cc(-c2nc(C(F)(F)F)cs2)c(-c2ccc3c(c2)c(=O)c(C(=O)O)cn3CCOC)cn1 [Example 1, 6-(6-(3-Ethylureido)-4-(4-(trifluoromethyl)thiazol-2-yl)pyridin-3-yl)-1-(2-methoxyethyl)-4-oxo-1,4-dihydroquinoline-3-carboxylic acid]  100%
12. CCNC(=O)Nc1cc(-c2nc(-c3ccccc3)cs2)c(-c2ccc3c(c2)c(=O)c(C(=O)O)cn3CCOC)cn1 [Example 2, 6-(6-(3-ethylureido)-4-(4-phenylthiazol-2-yl)pyridin-3-yl)-1-(2-methoxyethyl)-4-oxo-1,4-dihydroquinoline-3-carboxylic acid]  100%
13. CCNC(=O)Nc1cc(-c2nc(-c3ccccc3)cs2)c(-c2ccc3c(=O)c(C(=O)O)cn(CC)c3c2)cn1 [Example 15, 1-ethyl-7-(6-(3-ethylureido)-4-(4-phenylthiazol-2-yl)pyridin-3-yl)-4-oxo-1,4-dihydroquinoline-3-carboxylic acid]  101%
14. CCNC(=O)Nc1cc(-c2nc(-c3ccccc3)cs2)c(-c2ccc3c(c2)c(=O)c(C(=O)O)cn3CC)cn1 [Example 16, 1-ethyl-6-(6-(3-ethylureido)-4-(4-phenylthiazol-2-yl)pyridin-3-yl)-4-oxo-1,4-dihydroquinoline-3-carboxylic acid]  101%
15. CCNC(=O)Nc1cc(-c2nc(C(F)(F)F)cs2)c(-c2ccc3c(=O)c(C(=O)O)c[nH]c3c2)cn1 [Example 23, 7-(6-(3-Ethylureido)-4-(4-(trifluoromethyl)thiazol-2-yl)pyridin-3-yl)-4-oxo-1,4-dihydroquinoline-3-carboxylic acid]  101%
16. CCNC(=O)Nc1cc(-c2nc(C(F)(F)F)cs2)c(-c2cc3c4c(c2)c(=O)c(C(=O)O)cn4CCO3)cn1 [Example 11, 9-(6-(3-ethylureido)-4-(4-trifluoromethylthiazol-2-yl)pyridin-3-yl)-7-oxo-3,7-dihydro-2H-[1,4]oxazino[2,3,4-ij]quinoline-6-carboxylic acid]  102%
17. CCNC(=O)Nc1cc(-c2nc(-c3ccccc3)cs2)c(-c2cc3c4c(c2)c(=O)c(C(=O)O)cn4CCO3)cn1 [Example 17, 9-(6-(3-ethylureido)-4-(4-phenylthiazol-2-yl)pyridin-3-yl)-7-oxo-3,7-dihydro-2H-[1,4]oxazino[2,3,4-ij]quinoline-6-carboxylic acid]  103%
18. CCNC(=O)Nc1cc(-c2nc(C(F)(F)F)cs2)c(-c2ccc3c(c2)c(=O)c(C(=O)O)cn3[C@@H]2CCCC[C@@H]2O)cn1 (relative stereo) [Example 276, 6-(6-(3-ethylureido)-4-(4-(trifluoromethyl)thiazol-2-yl)pyridin-3-yl)-1-(cis-2-hydroxycyclohexyl)-4-oxo-1,4-dihydroquinoline-3-carboxylic acid]  106%
19. CCNC(=O)Nc1cc(-c2nc(C(F)(F)F)cs2)c(-c2ccc3c(c2)c(=O)c(C(=O)O)cn3[C@H]2CNC[C@@H]2O)cn1 (relative stereo) [Example 310, trans 6-(6-(3-ethylureido)-4-(4-(trifluoromethyl)thiazol-2-yl)pyridin-3-yl)-1-(4-hydroxypyrrolidin-3-yl)-4-oxo-1,4-dihydroquinoline-3-carboxylic acid]  106%

Same assay, conditions: read-out: % Inhibition of S. aureus GyrB ATPase

`CCNC(=O)Nc1cc(-c2nc(C(F)(F)F)cs2)c(-c2ccc3c(c2)c(=O)c(C(=O)O)cn3CCCN2CCCC2=O)cn1` [Example 7, 6-(6-(3-ethylureido)-4-(4-(trifluoromethyl)thiazol-2-yl)pyridin-3-yl)-4-oxo-1-(3-(2-oxopyrrolidin-1-yl)propyl)-1,4-dihydroquinoline-3-carboxylic acid sodium] showed an inhibition at 1 µM of 100%.
